Laboratory results published in US9145415B2, “Nitrogen-containing heterocyclic compound or salt thereof” (FUJIFILM Corporation, priority 2012, dated 2015).
Like-named read-outs stand apart in the source and are kept apart here.

Legend:
[1] = molecular target: T1, human FLT3 protein (FLT3 (WT)) (Homo sapiens, UniProt P36888); experiment: FLT3 inhibition test (FLT3 enzyme inhibition, time-resolved fluorescence of substrate peptide phosphorylation); assay type: biochemical; settings: read-out: FLT3 (WT) enzyme inhibition activity
T1 construct: human FLT3 protein (intracellular region, 564 to 993 aa); GST; purchased Carna Biosciences; host or cells: baculovirus expression system
T1 sequence (P36888 564-993): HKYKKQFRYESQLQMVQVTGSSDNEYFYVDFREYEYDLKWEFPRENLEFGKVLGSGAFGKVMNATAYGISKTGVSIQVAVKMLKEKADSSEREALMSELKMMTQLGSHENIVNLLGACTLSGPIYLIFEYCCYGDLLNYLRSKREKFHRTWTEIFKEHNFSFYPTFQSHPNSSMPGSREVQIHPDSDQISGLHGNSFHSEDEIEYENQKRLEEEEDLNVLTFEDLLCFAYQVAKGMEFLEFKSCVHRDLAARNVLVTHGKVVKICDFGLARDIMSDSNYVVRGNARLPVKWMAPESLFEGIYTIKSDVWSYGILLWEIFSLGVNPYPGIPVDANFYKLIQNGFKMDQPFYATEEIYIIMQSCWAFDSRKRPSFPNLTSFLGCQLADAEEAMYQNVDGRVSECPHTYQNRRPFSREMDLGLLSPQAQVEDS
Protocol: The FLT3 inhibition test was performed for the compounds of the present invention by the method described below.
A reaction mixture in a volume of 9 μL containing the FLT3 protein and a test compound of a predetermined concentration (1.2 μg of FLT3, 100 mM HEPES, 10 mM MgCl2, 25 mM NaCl, 0.01% BSA, 1 mM DTT, pH 7.5) was left standing at 25° C. for 15 minutes. […] (Toray Industries), and 3 μL (final concentration 50 μM) of ATP (Sigma-Aldrich) were added to the reaction mixture, and the mixture was shaken for 2 minutes, and then further left standing at 25° C. for 30 minutes to allow the enzymatic reaction.

MV4-11 cells = experiment: Leukemia cell proliferation inhibition test (ATPlite), MV4-11; assay type: cell-based; settings: read-out: MV4-11 cell proliferation inhibition effect
Protocol: (§1) A leukemia cell proliferation inhibition test was performed for the compounds of the present invention by using the leukemia cell strains MV4-11 (ATCC Number, CRL-9591) and Molm-13 (DSMZ Number, ACC554).
(§2) The leukemia cell proliferation inhibition test was performed by the method described below.
(§3) For the purpose of measuring proliferation inhibition attained with a compound, the total cell count was quantified on the basis of the total cellular ATP concentration using the ATPlite (PerkinElmer) reagent utilizing firefly luciferase. The Molm-13 or MV4-11 cells were added to the RPMI medium containing penicillin and streptomycin (penn/strep) and 10% FBS at a density of 2×10^5 cells/ml, and 50 μL (10,000 cells) of the cell suspension was inoculated to each well of a 96-well plate (Corning).
(§4) A serially diluted solution of a compound or 0.1% DMSO (solvent control) in a volume of 50 μL was added to the cells, and then the cells were cultured for 72 hours under the standard cell proliferation conditions (37° C., 5% CO2) to allow proliferation of the cells. In order to measure the proliferation of the total cells, equal volume of the ATPlite reaction mixture was added to each well in accordance with the instructions attached to ATPlite, and then luminescence count of the well was measured (relative light unit, RLU).
(§5) The RLU signal observed with the DMSO solvent control after 72 hours of the culture was defined as a signal indicating 0% inhibition, and the GI50 value for the proliferation inhibition corresponds to a concentration of a compound that provides 50% inhibition based on the proliferation of the total cells contained in the DMSO solvent control. Each data point was obtained from samples in duplicate. The GI50 values were calculated by the non-linear regression fitting (Fit Model (205)) according to a sigmoid dose-reaction equation using the XLfit software.

Molm-13 cells = experiment: Leukemia cell proliferation inhibition test (ATPlite), Molm-13; assay type: cell-based; settings: read-out: MOLM13 cell proliferation inhibition effect
Protocol: as §1, §2, §3, §4, §5

[2] = GST-fused human FLT3 (564 to 993 aa), ATP 50 μM
[3] = Homo sapiens, MV4-11, 72 h, MV4-11, 72 hours culture, ATPlite, GI50 per method
[4] = Homo sapiens, MOLM-13, 72 h, Molm-13, 72 hours culture, ATPlite, GI50 per method

Structure (SMILES) | IC50 [1, 2] [nM] | IC50 (MV4-11 cells; [3]) [nM] | IC50 (Molm-13 cells; [4]) [nM] | IC50 ([1]; FLT3 (WT)) [nM] | IC50 (MV4-11 cells; Homo sapiens, MV4-11, MV4-11 cell) [nM] | IC50 (Molm-13 cells; Homo sapiens, MOLM-13, MOLM13 cell) [nM] | IC50 (MV4-11 cells; MV4-11, 72 hours culture, ATPlite, GI50 per method) [nM] | IC50 (Molm-13 cells; Molm-13, 72 hours culture, ATPlite, GI50 per method) [nM]
CCCN(C)c1nc(NCCc2ccncc2)ncc1C#Cc1cccc(NC(=O)[C@H](C)N(C)C(=O)/C=C/CN(C)C)c1 [Compound 12-14, (S,E)-4-(dimethylamino)-N-methyl-N-(1-((3-((4-(methyl(propyl)amino)-2-((2-(pyridin-4-yl)ethyl)amino)pyrimidin-5-yl)ethynyl)phenyl)amino)-1-oxopropan-2-yl)-2-butenamide] | < 10 | < 10 | < 10 | – | – | – | – | –
CCCNc1nc(Nc2ccc(C#N)cc2)ncc1C#C[C@@H]1CC[C@H](NC(=O)[C@H](C)N(C)C(=O)/C=C/CN(C)C)C1 [Compound 13-11] | < 10 | < 10 | < 10 | – | – | – | – | –
CCNc1nc(Nc2ccc3c(cnn3C)c2)ncc1C#CCCCNC(=O)[C@H](C)N(C)C(=O)/C=C/CN(C)C [Compound 10-53] | < 10 | < 10 | < 10 | – | – | – | – | –
CCCNc1nc(Nc2ccc(C(N)=O)cc2)ncc1C(=O)Nc1cccc(NC(CNC(=O)/C=C/CN(C)C)C(F)(F)F)c1 (stereo not drawn) [Compound 3-17] | < 10 | 100 to 1000 | > 1000 | – | – | – | – | –
C=CC(=O)NCC(=O)NC1CCCC(NC(=O)c2cnc(NCCc3ccncc3)nc2NCCC)C1 (stereo not drawn) [Compound 1-4] | < 10 | < 10 | 10 to 100 | – | – | – | – | –
CCCNc1nc(Nc2ccnc(F)c2)ncc1C#CCCCNC(=O)[C@H](CC)N(C)C(=O)/C=C/CN(C)C [Compound 9-18] | < 10 | < 10 | < 10 | – | – | – | – | –
COCCCNc1nc(Nc2ccc(F)cc2)ncc1C#CCCCNC(=O)CN(C)C(=O)/C=C/CN(C)C [Compound 10-27] | < 10 | < 10 | < 10 | – | – | – | – | –
C=CC(=O)NCC(=O)NC(CC)CCNC(=O)c1cnc(NCCc2ccncc2)nc1NCCC (stereo not drawn) [Compound 1-6] | < 10 | 10 to 100 | 10 to 100 | – | – | – | – | –
COCCN(C)c1nc(Nc2ccc(C#N)cc2)ncc1C#CCCCNC(=O)[C@H](C)N(C)C(=O)/C=C/CN(C)C [Compound 10-51] | < 10 | < 10 | < 10 | – | – | – | – | –
CCCNc1nc(Nc2ccc(C#N)cc2)nc(C)c1C#CCCCNC(=O)[C@H](C)N(C)C(=O)/C=C/CN(C)C [Compound 19-1, (S,E)-N-(1-((5-(2-((4-cyanophenyl)amino)-4-methyl-6-(propylamino)pyrimidin-5-yl)-4-pentyn-1-yl)amino)-1-oxopropan-2-yl)-4-(dimethylamino)-N-methyl-2-butenamide] | < 10 | 100 to 1000 | 100 to 1000 | – | – | – | – | –
C[C@@H](C(=O)N[C@H]1CCC[C@@H](C#Cc2cnc(Nc3ccc(F)cc3)nc2NC2CC2)C1)N(C)C(=O)/C=C/CN(C)C [Compound 21-46] | – | – | – | < 10 | < 10 | < 10 | – | –
CCNc1nc(Nc2cccc(F)c2)ncc1C#C[C@@H]1CCC[C@H](NC(=O)[C@H](C)N(C)C(=O)/C=C/CN(C)C)C1 [Compound 21-27] | < 10 | < 10 | < 10 | – | – | – | – | –
CCCNc1nc(Nc2ccc(C#N)cc2)ncc1C#CCNC(=O)CCNC(=O)/C=C/CN(C)C [Compound 7-90] | < 10 | 100 to 1000 | 100 to 1000 | – | – | – | – | –
CCCNc1nc(Nc2ccc(C(N)=O)cc2)ncc1C(=O)NCCCNC(=O)[C@H](C)N(C)C(=O)/C=C/CN(C)C [Compound 5-1, (S,E)-2-((4-carbamoylphenyl)amino)-N-(3-(2-(4-(dimethylamino)-N-methyl-2-butenamido)propaneamido)propyl)-4-(propylamino)pyrimidine-5-carboxamide] | < 10 | < 10 | < 10 | – | – | – | – | –
CCCNc1nc(Nc2ccc(C(N)=O)cc2)ncc1-c1ccc(CCNC(=O)CNC(=O)/C=C/CN(C)C)cc1 [Compound 16-3] | < 10 | 100 to 1000 | 100 to 1000 | – | – | – | – | –
CCCNc1nc(Nc2cccc(F)c2)ncc1C#CCCCNC(=O)[C@@H]1C[C@@H](O)CN1C(=O)/C=C/CN(C)C [Compound 7-66, (2S,4R)-1-((E)-4-(Dimethylamino)-2-butenoyl)-N-(5-(2-((3-fluorophenyl)amino)-4-(propylamino)pyrimidin-5-yl)-4-pentyn-1-yl)-4-hydroxypyrrolidine-2-carboxamide] | < 10 | < 10 | < 10 | – | – | – | – | –
CCCNc1nc(Nc2ccc(F)nc2)ncc1C#CCCCNC(=O)[C@H](C)N(C)C(=O)/C=C/CN(C)C [Compound 7-21, (S,E)-4-(Dimethylamino)-N-(1-((5-(2-((6-fluoropyridin-3-yl)amino)-4-(propylamino)pyrimidin-5-yl)-4-pentyn-1-yl)amino)-1-oxopropan-2-yl)-N-methyl-2-butenamide] | < 10 | < 10 | < 10 | – | – | – | – | –
CCCNc1nc(Nc2ccc(C(N)=O)cc2)ncc1C(=O)N[C@H]1CCC[C@H](Nc2ccccc2NC(=O)/C=C/CN(C)C)C1 [Compound 3-27] | < 10 | – | – | – | – | – | 10 to 100 | 10 to 100
CCCNc1nc(Nc2ccc(C(N)=O)cc2)ncc1C(=O)Nc1cccc(NC(=O)[C@H](C)N(C)C(=O)/C=C/C(CC)N(C)C)c1 (stereo partly drawn) [Compound 4-15] | < 10 | 10 to 100 | 100 to 1000 | – | – | – | – | –
C[C@@H](C(=O)NCCCC#Cc1cnc(Nc2ccc(C#N)cc2)nc1N1CCC1)N(C)C(=O)/C=C/CN(C)C [Compound 10-14] | < 10 | < 10 | < 10 | – | – | – | – | –
C=CC(=O)N(C)CC(=O)NCCCNC(=O)c1cnc(Nc2ccc3cnncc3c2)nc1NCCC [Compound 6-10A, N-(3-(2-(N-methylacrylylamido)actamido)propyl)-2-((phthalazin-6-yl)amino)-4-(propylamino)pyrimidine-5-carboxamide] | < 10 | 10 to 100 | 100 to 1000 | – | – | – | – | –
CCNc1nc(Nc2ccc3cn[nH]c3c2)ncc1C#CCCCNC(=O)[C@@H]1CCCN1C(=O)/C=C/CN(C)C [Compound 10-70] | < 10 | < 10 | < 10 | – | – | – | – | –
CCCNc1nc(Nc2ccc(C#N)cc2)ncc1C#CCCCNC(=O)[C@H]([C@@H](C)O)N(C)C(=O)/C=C/CN(C)C [Compound 7-63] | < 10 | < 10 | < 10 | – | – | – | – | –
CCCNc1nc(NCCc2ccncc2)ncc1C(=O)Nc1cccc(NC(=O)CNC(=O)/C=C/CN2CCOCC2)c1 [Compound 2-13] | < 10 | 10 to 100 | 10 to 100 | – | – | – | – | –
C=CC(=O)N(C)[C@@H](C)C(=O)NCCCC#Cc1cnc(Nc2cccc(C#N)c2)nc1N1CCOCC1 [Compound 9-4] | < 10 | 10 to 100 | 10 to 100 | – | – | – | – | –
C[C@@H](C(=O)NCCCC#Cc1cnc(Nc2cccc(C#N)c2)nc1N1CCOCC1)N(C)C(=O)/C=C/CN(C)C [Compound 9-2] | < 10 | 10 to 100 | 10 to 100 | – | – | – | – | –
C[C@@H](C(=O)N[C@H]1CCC[C@@H](C#Cc2cnc(Nc3cccc(F)c3)nc2NC2CC2)C1)N(C)C(=O)/C=C/CN(C)C [Compound 21-29] | < 10 | < 10 | < 10 | – | – | – | – | –
CCCNc1nc(Nc2ccc(C(N)=O)cc2)ncc1C(=O)Nc1cccc(NC(=O)[C@H](C)N(C)C(=O)/C=C/CNC(C)(C)C)c1 [Compound 4-4] | < 10 | < 10 | < 10 | – | – | – | – | –
